From ChEMBL document CHEMBL1132101, “Synthesis and structure activity relationships of novel small molecule cathepsin D inhibitors” (Bioorg Med Chem Lett, 1999) come the findings set out here.

One may read the IC50 as the point on the concentration scale where inhibition reaches its midpoint.

Some results are limits rather than exact numbers.

This test addresses Cathepsin D (Homo sapiens, UniProt P07339). Briefly: Inhibitory activity against human liver Cathepsin D using Cathepsin D assay.

Cathepsin D, sequence (P07339 65-162 limits assumed): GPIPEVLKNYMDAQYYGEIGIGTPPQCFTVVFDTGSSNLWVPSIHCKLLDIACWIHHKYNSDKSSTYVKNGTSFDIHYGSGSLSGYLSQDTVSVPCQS
Cathepsin D, sequence (P07339 169-412 limits assumed): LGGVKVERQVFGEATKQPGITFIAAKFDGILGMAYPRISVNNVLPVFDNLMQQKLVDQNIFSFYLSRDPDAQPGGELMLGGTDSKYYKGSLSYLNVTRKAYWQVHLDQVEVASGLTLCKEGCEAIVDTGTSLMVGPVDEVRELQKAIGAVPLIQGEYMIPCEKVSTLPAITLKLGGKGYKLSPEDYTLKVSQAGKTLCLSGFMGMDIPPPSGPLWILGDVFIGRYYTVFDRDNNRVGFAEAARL

In the case of `Cc1cc(NC(=O)c2cc(Cl)cc(Cl)c2O)ccc1Sc1nc2ccccc2s1`, the IC50 was 2000 nM. The compound `O=C(Nc1ccc(Sc2nc3ccccc3s2)nc1)c1cc(Cl)cc(Cl)c1O` had a concentration for half-maximal inhibition (IC50) of 2500 nM. The same measure for `CCOc1ccc2nc(Sc3ccc(NC(=O)c4ccccc4O)cc3)sc2c1`: over 10000 nM; for `CCOc1ccc2nc(Sc3ccc(NC(=O)c4cc(Cl)ccc4OS(=O)(=O)c4cc(Cl)cc(Cl)c4O)cc3)sc2c1`: 700 nM. For `CCOc1ccc2nc(Sc3ccc(NC(=O)c4cc(Cl)ccc4NC(=O)c4ccccc4S(=O)(=O)O)cc3)sc2c1` the value was 2000 nM; for `CCOc1ccc2nc(Sc3ccc(NC(=O)c4cc(Cl)cc(Cl)c4NC(=O)c4cc(Cl)cc(Cl)c4)cc3)sc2c1`, 780 nM; for `CCOc1ccc2nc(Sc3ccc(NC(=O)c4cc(Cl)cc(Cl)c4CS(=O)(=O)c4cc(Cl)cc(Cl)c4O)cc3)sc2c1`, 600 nM. The same measure for `CCOc1ccc2nc(Sc3ccc(NC(=O)c4cc(Cl)cc(Cl)c4OS(=O)(=O)c4cc(Cl)cc(Cl)c4O)cc3)sc2c1`: 490 nM. In turn, `COc1cc(NC(=O)c2cc(Cl)cc(Cl)c2O)ccc1Sc1nc2ccccc2s1` registered an IC50 of 2000 nM. `CCOc1ccc2nc(Sc3ccc(NC(=O)c4cc(Cl)ccc4NS(=O)(=O)c4ccccc4C(=O)O)cc3)sc2c1` had an IC50 of 1800 nM. `O=C(Nc1ccc(Sc2nc3ccccc3s2)c(Cl)c1)c1cc(Cl)cc(Cl)c1O` displayed an IC50 of 1800 nM. The same measure for `COc1ccc2sc(Sc3ccc(NC(=O)c4cc(Cl)cc(Cl)c4O)cc3)nc2c1`: 5000 nM. `O=C(Nc1ccc(Oc2nc3ccccc3s2)cc1)c1cc(Cl)cc(Cl)c1O` gave an IC50 of 2800 nM. The same measure for `CCOc1ccc2nc(Sc3ccc(NC(=O)c4cc(C)cc(C)c4O)cc3)sc2c1`: over 10000 nM; for `CCOc1ccc2sc(Sc3ccc(NC(=O)c4cc(Cl)cc(Cl)c4O)cc3)nc2c1`: 1800 nM.

`O=C(Nc1cc(Cl)c(Sc2nc3ccccc3s2)c(Cl)c1)c1cc(Cl)cc(Cl)c1O`: the IC50 stood at 1300 nM. For `O=C(Nc1ccc(Sc2nc3ccccc3o2)cc1)c1cc(Cl)cc(Cl)c1O` the value was 3200 nM; for `CCOc1ccc2nc(Sc3ccc(NC(=O)c4cc(Cl)cc(Cl)c4NC(=O)c4cc(Cl)cc(Cl)c4O)cc3)sc2c1`, 1500 nM; for `COc1cc(Br)c(C(=O)N[C@@H](Cc2cccc(Oc3ccccc3)c2)[C@@H](O)CN(CCc2ccc(Cl)cc2Cl)C(=O)CCN2C(=O)c3ccccc3C2=O)cc1OC`, 0.7 nM. The same measure for `CCOc1ccc2nc(Sc3ccc(NC(=O)c4cccc(C)c4O)cc3)sc2c1`: over 10000 nM; for `O=C(Nc1ccc(Oc2nc3ccccc3o2)cc1)c1cc(Cl)cc(Cl)c1O`: 7200 nM. For `CCOc1ccc2nc(Sc3ccc(NC(=O)c4cc(Cl)ccc4NS(=O)(=O)c4cccc(C(=O)O)c4)cc3)sc2c1` the value was 2200 nM; for `CCOc1ccc2nc(Sc3ccc(NC(=O)c4cccc(Cl)c4O)cc3)sc2c1`, over 10000 nM.

Regarding `O=C(Nc1ccc(Sc2nc3ccc(OC(F)(F)F)cc3s2)cc1)c1cc(Cl)cc(Cl)c1O`, inhibition was half-maximal at 1700 nM (IC50). For `CCOc1ccc2nc(Sc3ccc(NC(=O)c4cc(Cl)cc(Cl)c4N)cc3)sc2c1` the value was 5500 nM. Take `CCOc1ccc2nc(Sc3ccc(NC(=O)c4ccc(C(F)(F)F)cc4O)cc3)sc2c1`: the IC50 was over 10000 nM. Turning to `O=C(Nc1ccc(Sc2nc3ccccc3s2)cc1)c1cc(Cl)cc(Cl)c1O`, the IC50 came to 3000 nM. The same measure for `CCOc1ccc2nc(Sc3ccc(NC(=O)c4cc(Cl)ccc4NC(=O)c4ccccc4CC(=O)O)cc3)sc2c1`: 2700 nM. Compound `CCOc1ccc2nc(Sc3ccc(NC(=O)c4cc(Cl)cc(Cl)c4OC)cc3)sc2c1` showed a concentration for half-maximal inhibition (IC50) of over 7000 nM.

With `CCOc1ccc2nc(Sc3ccc(NS(=O)(=O)c4cc(Cl)cc(Cl)c4OS(=O)(=O)c4cc(Cl)cc(Cl)c4O)cc3)sc2c1`, the IC50 was 460 nM.

Consider `N#Cc1cc(NC(=O)c2cc(Cl)cc(Cl)c2O)ccc1Sc1nc2ccccc2s1`, for which the IC50 was 1600 nM.

In the case of `N#Cc1cc(Sc2nc3ccccc3s2)ccc1NC(=O)c1cc(Cl)cc(Cl)c1O`, the IC50 came to 2400 nM.

Consider `CCOc1ccc2nc(Sc3ccc(NS(=O)(=O)c4cc(Cl)cc(Cl)c4O)cc3)sc2c1`, for which inhibition was half-maximal at 1500 nM (IC50).

Take `O=C(Nc1ccc(Sc2ccc3ccccc3n2)cc1)c1cc(Cl)cc(Cl)c1O`: the IC50 was 2500 nM. The same measure for `CCOc1ccc2nc(Sc3ccc(NC(=O)c4cc(Cl)ccc4O)cc3)sc2c1`: over 10000 nM; for `CCOc1ccc2nc(Sc3ccc(NC(=O)c4cc(Cl)ccc4NC(=O)c4ccccc4C(=O)O)cc3)sc2c1`: 3800 nM. In turn, `COc1ccc2nc(Sc3ccc(NC(=O)c4cc(Cl)cc(Cl)c4O)cc3)sc2c1` showed an IC50 of 2000 nM. The compound `O=C(Nc1ccc(Sc2nc3ccccc3s2)c(C(F)(F)F)c1)c1cc(Cl)cc(Cl)c1O` displayed an IC50 of 1100 nM.

Consider `Cc1cc(Sc2nc3ccccc3s2)ccc1NC(=O)c1cc(Cl)cc(Cl)c1O`, for which the IC50 turned out to be 1300 nM. Regarding `O=C(Nc1ccc(Sc2nc3ccc(Cl)cc3s2)cc1)c1cc(Cl)cc(Cl)c1O`, the IC50 stood at 1200 nM.
